According to US20060014726A1, “Derivatives of cyclic1, 3- propanediol phosphate and their action in differentiation therapy” (priority 2002, published 2006):

Assays:
[1] = system: T47D human breast cancer cells (clone 11); experiment: Proliferation assay ([3H]thymidine uptake); format: cell-based; details: T47D clone 11, 50 μM
Description: In order to validate such an observation, T47D cells were incubated with varying concentration of 1,3-cPP in the range of 1-50 μM in a standard 5 day [3H]thymidine uptake assay.
T47D cells (clone 11;ER^+PR^+) were plated in 96 well plates in sets of 6, each containing 8×10^4 cells in a final volume of 200 μl per well. 1,3-cPP was added to the cultures to form a final concentration of 1-50 μM. Plates were incubated at 37° C. over the course of 5 days, where on each day, one plate was pulsed with [^3H]thymidine (5.7 Ci/mmol, Sigma, St. Louis, Mo.) overnight for the last 16 hours of the assay, and then frozen. The plates were harvested (Packard micromate 196 harvester, Merriden, Conn.) and radioactivity was scored on a 96 well plate reader (Packard 96, merriden, Conn.).

[2] = system: ER-α mRNA in T47D clone 8 cells; experiment: Quantitative RT-PCR of ER-α mRNA in T47D clone 8 cells; format: cell-based, human; details: 20 μM, 6 days (FIG. 4D)
Description: It should however be understood that the augmented expression of ER-α and PR presented in FIGS. 1-3 could have in principle originated from increase in either transcription or translation associated with the respective steroid receptor genes. Therefore the effects of long term incubation with 1,3cPP on the respective ER-α and PR mRNA levels were examined. Quantitative RT-PCR was carried out with a Light Cycler as described. […] In contrast, only 20 μM 1,3-cPP were required to induce 7-fold increase in the ER-α mRNA in T47D clone 8 cells (FIG. 4D). […]
RT-PCR was carried out on a programmable thermal controller instrument according to standard protocols, where the annealing temperatures were 58° C. for ER-α and 56° C. for PR. […] The PCR products were diluted and used to build a standard curve for the quantitative PCR which was carried out in a Light Cycler instrument (Roche Diagnostics, Mannheim, Germany). […] For each control and test sample, the amount of the constitutively expressed house keeping enzyme glyceraldehyde-3-phosphate dehydrogenase (GAPDH) mRNA was quantified by using appropriate primers and the quantity of ER-α and PR mRNA were normalized to the quantity of GAPDH mRNA in each sample. The relative amounts of ER-α and PR mRNA were expressed as normalized 1,3cPP treatment values divided by the normalized control values.

Acute toxicity testing = format: in vivo; details: CD-1 mice
Description: The acute toxicity of 1,3cPP was determined in CD-1 male and female mice, 8-12 weeks of age, via i.v., i.p. and p.o. routes of administration.

In the case of `O=P1(O)OCCCO1` [1,3-cPP, 1,3-cyclic propanediol phosphate], the “proliferation ([3H]thymidine uptake), persistence of effect” value ([1]; after the third day of 5 day assay) is reported as “effect was lost after the third day”, the “proliferation ([3H]thymidine uptake) compared to control cultures” value ([1]; first 3 days of incubation, P values 0.0370, 0.0192 and 0.0238 on days 1-3) is reported as “significantly inhibited proliferation” and the “increase in the ER-α mRNA” value [2] is reported as 7 fold. The “acute 24 hr toxicity, pharmacotoxic effects” value (Acute toxicity testing; i.p., doses of 0.25-5.0 g/kg) was “no pharmacotoxic effects were observed”, the “toxicity classification following conventional criteria” value (Acute toxicity testing; i.v., i.p. and p.o.) was “practically non-toxic substance” and the “acute toxicity, changes in body weight and behavior” value (Acute toxicity testing; i.v., up to 1 g/kg) was “no changes in body weight nor in behavior”. The “acute toxicity, changes in body weight and behavior” value (Acute toxicity testing; p.o., up to 10 g/kg) was “no changes in body weight nor in behavior”.
